Measured values taken from patent US11072632B2, “Inhibitors of 17β-HSD1, 17β-HSD3 and 17β-HSD10” (UNIVERSITÉ LAVAL, priority 2011, dated 2021).
Entries after “also recorded” stand apart in the source; their conditions may differ.

What was measured:
T-47D cells [1] = assay: Estrogenic (proliferative) activity on T-47D (ER+) cell line; assay type: cell-based, human; details: 0.5, 1, 2.5 and 5 μM, 7 days
Procedure: (§1) Quantification of cell growth was determined by using CellTiter 96®Aqueous Solution Cell Proliferation Assay (Promega, Nepean, ON, Canada) following the manufacturer's instructions. T-47D cells were resuspended with the medium supplemented with insulin (50 ng/mL) and 5% dextran-coated charcoal treated FBS rather than 10% FBS to remove remaining hormones. Aliquots (100 μL) of the cell suspension were seeded in 96-well plates (3000 cells/well). After 48 h, the medium was changed with a new one containing an appropriate concentration of products to be tested and was replaced every 2 days. Cells have grown either in absence or presence of the compounds for 7 days. To determine the proliferative (estrogenic) activity, the estrogen-sensitive T-47D cells were grown in absence (basal cell proliferation was fixed as 100%) or presence of compounds to be tested at 0.5 to 10 μM. The potent estrogen E2 was used as a reference control. […] The cell proliferation without E1±inhibitor (control) was fixed as 100%. To determine the potential antiestrogenic activity of inhibitor Compound V, the T-47D (ER^+) cells were grown in the presence of estrogen E2 (0.1 nM) and pure antiestrogen EM-139 (0.5 μM) or inhibitor Compound V (0.5 μM). The cell proliferation without E2 and tested compounds (control) were fixed as 100%.

17β-HSD2 = target: T1, 17β-HSD2 (Homo sapiens, UniProt P37059); assay type: cell-based; details: 5 nM to 20 μM
T1 construct: expressed in transfected cells
T1 sequence (P37059 1-387): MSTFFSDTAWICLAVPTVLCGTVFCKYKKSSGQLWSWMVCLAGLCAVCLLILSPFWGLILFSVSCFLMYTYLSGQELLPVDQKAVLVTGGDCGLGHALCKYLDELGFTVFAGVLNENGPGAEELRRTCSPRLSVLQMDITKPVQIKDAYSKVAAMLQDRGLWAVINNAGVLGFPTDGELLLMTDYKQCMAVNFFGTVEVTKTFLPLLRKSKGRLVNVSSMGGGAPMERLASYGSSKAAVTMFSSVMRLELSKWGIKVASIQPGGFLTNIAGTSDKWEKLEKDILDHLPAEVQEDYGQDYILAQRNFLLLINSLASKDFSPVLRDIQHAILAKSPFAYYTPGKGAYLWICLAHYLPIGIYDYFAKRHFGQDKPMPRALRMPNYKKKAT
Procedure: Inhibition assays were performed using stable 17β-HSD2 HEK-293 transfected intact cells with 5000 cells per well using 24 well plates (Poirier et al. Mol. Cell. Endocrinol., 2001, 171, 119-128). The cells were incubated for 1 h at 37° C. in 1 mL of MEM medium steroid free with 60 nM C^14 estradiol.

T-47D cells [2] = assay: Antiestrogenic activity, E2-induced T-47D proliferation; assay type: cell-based, human; details: E2 0.1 nM, compound 0.5 μM
Procedure: as §1

T-47D cells [3] = assay: Inhibition of E1-stimulated T-47D cell proliferation; assay type: cell-based, human; details: control 100%
Procedure: as §1

[4] = system: ovariectomized (OVX) BALB/c mice; assay: In vivo estrogenicity assay in OVX mice (uterus, vagina weight); parameters: species or system mouse; details: 7 days; for weight of the uterus: OVX mice, s.c.
Procedure: Female ovariectomized (OVX) BALB/c mice weighing approximately 20 g were obtained from Charles-River, Inc. (St-Constant, Qc., Canada). The animals were housed 5 per cage. Groups of 5 mice were treated with E1 (0.02 μg in 8% EtOH/92% PG) or 17β-HSD1 inhibitor at 10, 50 and 250 μg (0.1 mL s.c.) daily for 7 days. Animals were killed 24 h after administration of the last dose of compound and uteri and vagina were removed, excised of fat and weighed. Total body weights of mice were also recorded.

human ERα = target: T2, human ERα (Homo sapiens, UniProt P03372); assay: ERα competitive binding assay (recombinant human ERα); details: FIG. 5B
T2 construct: purified full-length recombinant human ERα (Life Technologies, Grand Island, N.Y.); purchased Life Technologies
T2 sequence (P03372 1-595): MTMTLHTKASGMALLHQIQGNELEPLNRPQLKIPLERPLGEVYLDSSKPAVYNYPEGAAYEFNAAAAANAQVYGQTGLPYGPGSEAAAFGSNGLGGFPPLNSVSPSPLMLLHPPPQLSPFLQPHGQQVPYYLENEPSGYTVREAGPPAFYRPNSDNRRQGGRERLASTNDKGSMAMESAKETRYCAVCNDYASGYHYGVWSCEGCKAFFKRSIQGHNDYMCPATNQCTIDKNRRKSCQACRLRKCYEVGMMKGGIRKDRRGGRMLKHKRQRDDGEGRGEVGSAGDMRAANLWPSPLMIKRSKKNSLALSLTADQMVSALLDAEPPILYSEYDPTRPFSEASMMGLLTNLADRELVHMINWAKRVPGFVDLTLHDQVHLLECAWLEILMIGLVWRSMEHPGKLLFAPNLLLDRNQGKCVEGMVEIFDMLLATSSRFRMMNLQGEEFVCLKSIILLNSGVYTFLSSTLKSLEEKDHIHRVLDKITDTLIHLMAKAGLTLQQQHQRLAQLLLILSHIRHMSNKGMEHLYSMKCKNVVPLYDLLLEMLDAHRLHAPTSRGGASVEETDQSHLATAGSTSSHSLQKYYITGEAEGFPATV
Procedure: (§2) Non-specific binding was determined by incubation with an excess of cold estradiol (1 μM). After an overnight incubation at 4° C., 100 μl of cold 50% hydroxyapatite slurry was added to bind the receptor/ligand complex. After 15 minutes, 1 mL of wash buffer (40 mM Tris, 1 mM EDTA, 1 mM EGTA, 100 mM KCl, pH 7.4) was added and the tubes were centrifuged at 4500 rpm for 5 minutes at 4° C. The washing step was repeated twice. The radioactivity of the pellet was extracted by incubation with 1 mL of ethanol for 1 h at room temperature.
as §2, with “A competitive binding assay using a purified full-length recombinant human ERα (Life Technologies, Grand Island, N.Y.). […] Non-specific” for “Non-specific”, “E2” for “cold estradiol”, “μL” for “μl”

## C[C@]12CC[C@@H]3c4ccc(CCBr)cc4CC[C@H]3[C@@H]1C[C@H](Cc1cccc(C(N)=O)c1)[C@@H]2O [Compound V, 3-{[(16β,17β)-3-(2-bromoethyl)-17-hydroxyestra-1(10),2,4-trien-16-yl]methyl}benzamide]
T-47D cells [1]
  estrogenic (proliferative) activity on T-47D cells: not estrogenic at any concentration tested
17β-HSD2
  inhibition of 17β-HSD2 (conversion of E2 to E1): no inhibition; also recorded: did not show any inhibition
T-47D cells [2]
  antiestrogenic activity (reversal of E2-induced proliferation): does not reverse the proliferative effect
T-47D cells [3]; E1 0.1 nM + inhibitor 2.5 μM
  cell growth, E1-induced: 156%
T-47D cells [3]; E1 0.1 nM + inhibitor 5 μM
  cell growth, E1-induced: 125%
[4]; 10, 50 and 250 μg/mouse/day
  estrogenicity in vivo: non-estrogenic in vivo
[4]; 10 μg/mouse/day
  weight of the uterus: 25 mg
[4]; 50 μg/mouse/day
  weight of the uterus: 24 mg
[4]; 250 μg/mouse/day
  weight of the uterus: 23 mg

## C[C@]12CC[C@@H]3c4ccc(O)cc4CC[C@H]3[C@@H]1C[C@H](Cc1cccc(C(N)=O)c1)[C@@H]2O [Compound I, 16β-(m-carbamoylbenzyl)estradiol, reference compound]
Human ERα
  relative binding affinity (RBA): 1.5%
